Test results reported in US10576078B2 (Council of Scientific & Industrial Research, priority 2017, dated 2020).

Assays:
[1] = tested on: CD34+ cells from imatinib-resistant patients (quiescent LSCs); test: CFSE assay of quiescent LSCs; assay type: cell-based, Human
[2] = tested on: CD34+ population from CP-CML cells from imatinib-resistant patients; test: CD34+ count and apoptosis in CD34+ LSC population from imatinib-resistant CP-CML patients; assay type: cell-based, Human
Method: CD34^+ population from CP-CML cells from imatinib-resistant patients (n=3) were individually purified using a CD34 microbead kit (Miltenyi Biotech) and were treated with 5 μM CFZ or salinomycin for 48 h. Cells were then divided into two groups. One group was assessed by immunostaining for CD34 and the other group was stained with annexin V/PI and the cells were then analyzed by flow-cytometry. Salinomycin was used as positive control. **p<0.01, ***p<0.0001.
CD34^+ population from primary CP-CML cells from imatinib-resistant patients (n=3) were purified using a CD34 microbead kit. Cells were incubated with V or 2.5 μM CFZ for 96 h, stained with PE-conjugated anti-CD34 and FITC-conjugated anti-CD38 antibodies for specific subpopulation and apoptosis was analyzed by APC labeled annexin V and propidium iodide (PI) staining followed by flow-cytometry (FACSCalibur, BD biosciences). *p<0.05, **p<0.01.
The observed purity was 80-90%.
For assessing apoptosis in the CD34^+ population from CML patients, these cells were then treated as indicated in the figures and figure descriptions (FIG. 2A). At the end of treatment, cells from each treatment group were divided in two separate tubes. One group was stained with CD34-PE and the other group was stained with Annexin V FITC/PI antibodies.
For assessing apoptosis in CD34^+ CD38^+ and CD34^+ CD38^− subpopulations from CML patients, CD34^+ cells were isolated as above and were treated with V or 2.5 μM CFZ for 96 h and then stained with PE-conjugated anti-CD34, FITC-conjugated anti-CD38 antibodies for 30 min and then stained with Annexin V-APC/PI at room temperature for 15 minutes and then were gated into CD34^+38^+ and CD34^+38^− populations and apoptosis was assessed in a FACSAria flow cytometer.

K562 cells [3] = test: Megakaryocytic differentiation in K562 cells (May-Grünwald-Giemsa staining, CD61/CD41 flow cytometry); assay type: cell-based, Human
Method: K562 cells were treated with CFZ for 120 h and May-Grünwald-Giemsa staining followed by light microscopy was used to assess cellular morphology. […] PMA was used as appositive control. Representative photomicrographs from two independent experiments (8 fields per treatment group) are shown.
FIG. 3B-3C in particular show CFZ induces megakaryocytic surface markers CD61 (early) and CD41 (late) in K562 cells. K562 cells were treated as indicated for 72 h (Phorbol myristate acetate (PMA) was used as positive control) and then were stained with IgG isotype control or CD61 (B) & CD41 (C) IgG antibodies and were analyzed by flowcytometry (n=3). ***p<0.0001. PMA was used as a positive control.
May-Grünwald Giemsa Staining: To assess the changes in nuclear morphology, cells treated with vehicle (0.1% DMSO), CFZ (indicated concentrations in FIG. 3A) or PMA (positive control; 10 ng/ml) for 120 h (FIG. 3A). Cells were then washed with phosphate buffer saline (PBS) and were attached to glass slides by cytospin. These slides were stained with Giemsa and May-Grünwald solution (Sigma) as per manufacturer's instruction. Cells were then visualized by microscopy.
(§1) Differentiation analyses by flow cytometry: K562 (FIG. 3B-C) or primary CP-CML cells (FIG. 3D-E) were treated with vehicle, CFZ and PMA as indicated in the respective figures and figure descriptions for 72 hrs. Cells were then harvested, washed, and centrifuged, resuspended in 100 μl PBS and were stained with CD41-FITC or CD61-PE antibodies for 30 min at room temperature (in dark). After incubation, the cells were washed and resuspended in 300 μl PBS and were analyzed on a FACSCalibur flow cytometer.

[4] = cited from earlier work
CP-CML cells = test: Megakaryocytic surface markers in CP-CML cells by flow cytometry; assay type: cell-based, Human; settings: 2.5 μM CFZ, 72 h
Method: FIG. 3D-3E in particular show CFZ induces megakaryocytic surface markers CD61 and CD41 in CP-CML cells. CD61 (D) and CD41 (E) surface expression in CP-CML (gated monocytes) cells after treatment with 2.5 μM CFZ for 72 h were assessed by flowcytometry. *p<0.05, ***p<0.0001.
as §1

[5] = tested on: Peripheral blood mononuclear cells from control donors; test: Apoptosis by annexin V/PI staining in PBMC from control donors; assay type: cell-based, Human; settings: 5 μM, 48 h
K562 cells [6] = test: Western blotting of apoptosis proteins in K562 cells; assay type: cell-based, Human
Method: PARP cleavage in K562 cells was assessed by western blotting. One representative of three independent experiments is shown.
The expression of indicated proteins was determined by immunoblotting in K562 cells following indicated treatments. One representative of three independent experiments is shown.
K562 cells were cultured in 6 well plates and treated as indicated in figures or descriptions of FIG. 1E, FIG. 1G and FIG. 2D-E. Cells were then homogenized in lysis buffer containing 50 mM Tris-HCl, pH 7.5, 150 mM NaCl, 1% NP40, 5 mM EDTA, 1 mM DTT, protease and phosphatase inhibitor cocktails (Sigma) and incubated on ice for 30 min followed by 5 cycles of freeze-thaw. Samples were then centrifuged at 14000 rpm at 4° C. for 30 min. Supernatants were then quantified by Bichinchonic acid (Sigma)-based protein estimation. Equal amount of proteins were solubilized in Laemmli buffer, and were resolved by 10%-12% SDS PAGE and transferred onto PVDF membranes (Millipore; Billerica, Mass.). Membranes were blocked in 5% (w/v) non-fat dried milk powder (Sigma) in PBS containing 0.2% Tween 20 (Sigma). The membranes were then sequentially incubated with primary and secondary antibodies in PBS containing 0.2% Tween 20 and 2.5% BSA (with 3 washes in between). Immunoreactivity was detected using a chemiluminescent HRP Substrate (Millipore) in a LAS 4010 Chemi-doc Imager (GE Healthcare, Little Chalfont, UK). Antibodies used: phospho-STAT5, STAT5, cleaved PARP and caspases-3, -8, -9, pCrkL, Bcl2 and Bax antibodies were from Cell Signaling Technology (Boston, Mass.). Mouse monoclonal anti-β-Actin-Peroxidase and horse raddish peroxidase-conjugated secondary antibodies were from Sigma-Aldrich. For immunoblotting all primary antibodies were used in 1:1000 dilutions except β-actin (1:50000). Secondary antibodies were used at 1:10000 dilutions.

For `CC(C)/N=c1\cc2n(-c3ccc(Cl)cc3)c3ccccc3nc-2cc1Nc1ccc(Cl)cc1` [CFZ, Clofazimine], which “apoptosis in CFSE-bright cells” value ([1]; 96 h, annexin V) is on record?
Its value is “robust apoptosis”.

And the “apoptosis in CFSE-dim cells” value ([1]; 96 h, annexin V)?
The value was “robust apoptosis”.

What about the “CFSE-dim (dividing cell) population” value ([1]; n=3, 96 h) of the same molecule?
The value was “increased”.

And the “number of CFSE-bright (non-dividing) cells” value ([1]; n=3, 96 h)?
Its value is “drastically reduced”.

And the “apoptosis in committed CD34+38+ progenitor cells” value ([2]; 2.5 μM CFZ, 96 h, n=3)?
Its value is “induced apoptosis”.

And the “apoptosis in primitive CD34+38− progenitor cells” value ([2]; 2.5 μM CFZ, 96 h, n=3)?
Its value is “induced apoptosis”.

And the “apoptosis in CD34+ LSC population” value ([2]; imatinib-resistant CP-CML patients, n=3, 5 μM, 48 h)?
The value was “induced apoptosis”.

What about the “CD34+ population” value ([2]; imatinib-resistant patients, 5 μM, 48 h) of the same molecule?
Its value is “reduces”.

What about the megakaryocytic differentiation phenotype (K562 cells [3]; 1 μM, 120 h, May-Grünwald-Giemsa staining) of the same molecule?
Its megakaryocytic differentiation phenotype is “induced”.

And the “megakaryocytic surface marker CD41” value (K562 cells [3]; 72 h)?
The value was “increased”.

What about the “megakaryocytic surface marker CD61” value (K562 cells [3]; 72 h) of the same molecule?
Its value is “increased”.

What about the “average human plasma level of CFZ” value ([4]; following daily oral administration of 100 mg CFZ) of the same molecule?
The value was 0.7 mg/L.

And the “human plasma Cmax of CFZ” value ([4]; human plasma)?
The value was 400 to 4000 ng/mL.

What about the “megakaryocytic surface marker CD41” value (CP-CML cells) of the same molecule?
Its value is “increased”.

What about the “megakaryocytic surface marker CD61” value (CP-CML cells) of the same molecule?
The value was “increased”.

What about the “apoptosis in cells from control donors” value [5] of the same molecule?
The value was “didn't affect”.

What about the Bax expression (K562 cells [6]) of the same molecule?
The Bax expression was “increased”.

What about the Bcl-2 expression (K562 cells [6]) of the same molecule?
The Bcl-2 expression was “decreased”.

What about the caspase-3 activation (K562 cells [6]) of the same molecule?
Its caspase-3 activation is “activated”.

And the caspase-9 activation (K562 cells [6])?
The caspase-9 activation was “activated”.

And the “cytochrome C release” value (K562 cells [6])?
Its value is “induced”.

And the “apoptosis as determined by PARP cleavage” value (K562 cells [6]; western blotting)?
The value was “induces apoptosis”.
